Experimental data from US11202773B2, “Locally bioavailable drugs” (UNIVERSITY OF HOUSTON SYSTEM, priority 2015, dated 2021).

Assays:
human COX-2 [1] = target: T1, human COX-2 (Homo sapiens, UniProt P35354); test: COX-2 activity (PGE2 production) in HCA-7 cells after A23187; format: cell-based; set-up: HCA-7 is a human colon cancer cell line in which COX-2 protein is constitutively expressed; endogenous in cells; host or cells: HCA-7; settings: 30 min pre-incubation, 10 μM A23187, another 30 minutes
T1 sequence (P35354 18-604): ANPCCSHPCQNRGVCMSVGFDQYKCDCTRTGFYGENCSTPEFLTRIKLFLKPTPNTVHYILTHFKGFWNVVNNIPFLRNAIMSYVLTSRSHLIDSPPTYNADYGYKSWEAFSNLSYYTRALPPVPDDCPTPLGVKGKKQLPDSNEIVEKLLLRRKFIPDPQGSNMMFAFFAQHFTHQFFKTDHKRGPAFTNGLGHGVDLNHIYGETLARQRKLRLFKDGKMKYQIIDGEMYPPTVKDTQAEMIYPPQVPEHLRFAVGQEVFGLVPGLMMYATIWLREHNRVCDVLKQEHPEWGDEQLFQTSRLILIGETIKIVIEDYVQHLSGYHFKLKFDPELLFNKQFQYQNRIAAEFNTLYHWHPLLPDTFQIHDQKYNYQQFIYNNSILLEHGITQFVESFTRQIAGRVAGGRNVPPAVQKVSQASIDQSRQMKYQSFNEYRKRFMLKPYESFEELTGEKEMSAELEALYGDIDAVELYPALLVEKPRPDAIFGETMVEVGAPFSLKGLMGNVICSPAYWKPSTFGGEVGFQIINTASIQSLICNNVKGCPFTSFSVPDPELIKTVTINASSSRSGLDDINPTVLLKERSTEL
Method: (§1) First, the inhibitory effects of the new synthesized compounds on COX-2 were assayed in two cell lines: Raw264.7 cells and HCA-7 cells. Raw264.7 is a mouse macrophage cell line which expresses a high level of COX-2 protein upon lipopolysaccharide (LPS) induction. […] The concentration of prostaglandins (both PGD2 and PGE2) accumulated in the cell culture medium can be employed as an indicator of COX-2 activity. HCA-7 is a human colon cancer cell line in which COX-2 protein is constitutively expressed. Briefly, the cells were pre-incubated with different concentrations of the new compounds for 30 min, and then 10 μM A23187 (a calcium ionophore) was added to release membrane-bound arachidonic acid (the natural substrate of COX-2) to the cytosolic domain. The system was incubated for another 30 minutes and PGE2 concentrations in the culture medium were determined. In both cell lines, higher PGD2/PGE2 concentrations in the media meant more COX-2 activity.

mouse COX-2 = target: T2, mouse COX-2 (Mus musculus, UniProt Q05769); test: COX-2 activity (PGD2/PGE2 production) in LPS-induced Raw264.7 cells; format: cell-based; settings: 0.1 μg/mL LPS, 14 hours co-incubation
T2 construct: Raw264.7 is a mouse macrophage cell line which expresses a high level of COX-2 protein upon lipopolysaccharide (LPS) induction; endogenous in cells; host or cells: Raw264.7 (LPS-induced)
T2 sequence (Q05769 18-604): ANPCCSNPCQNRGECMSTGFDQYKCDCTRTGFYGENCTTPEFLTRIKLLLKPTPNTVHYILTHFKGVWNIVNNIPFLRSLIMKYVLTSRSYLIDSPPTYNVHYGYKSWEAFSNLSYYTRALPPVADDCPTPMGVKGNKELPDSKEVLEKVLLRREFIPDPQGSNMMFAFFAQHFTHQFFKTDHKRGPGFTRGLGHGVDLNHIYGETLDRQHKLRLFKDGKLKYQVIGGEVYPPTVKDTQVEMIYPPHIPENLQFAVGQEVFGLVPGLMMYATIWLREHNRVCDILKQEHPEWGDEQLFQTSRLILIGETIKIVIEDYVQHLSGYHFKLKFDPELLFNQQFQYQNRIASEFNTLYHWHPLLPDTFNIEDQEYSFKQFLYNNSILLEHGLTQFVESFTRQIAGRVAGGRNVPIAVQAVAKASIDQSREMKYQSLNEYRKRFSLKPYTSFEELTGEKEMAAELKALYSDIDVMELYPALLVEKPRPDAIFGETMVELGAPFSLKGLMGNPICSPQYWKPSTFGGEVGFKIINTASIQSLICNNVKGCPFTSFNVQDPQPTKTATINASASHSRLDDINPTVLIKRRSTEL
Method: as §1

human COX-2 [2] = target: T1, human COX-2; test: In vitro enzyme assay, recombinant human COX-2 (PGE2 production); format: biochemical; settings: read-out: IC50 against recombinant human COX-2
From the text: FIG. 3A is a bar graph illustration of PGE2 production by recombinant human COX-2 enzyme in the presence of the new compounds. Less PGE2 production means inhibition of COX-2 enzyme.
FIG. 3B is a bar graph illustration of PGE2 production by recombinant human COX-2 enzyme in the presence of the metabolites of the new compounds. Less PGE2 production means inhibition of COX-2 enzyme.

rat liver microsomes = test: Glucuronidation by rat liver microsomes; format: in vitro ADME
Method: (§2) FIG. 5A is a bar graph illustrating in vitro metabolism of phenolics via glucuronidation pathway. Glucuronidation rates of all the new locally bioavailable COX-2 inhibitors by rat liver microsomes. Additional metabolic rates of various locally bioavailable COX-2 inhibitors are in Table 3. […]. The incubation systems were: for glucuronidation, 0.88 mM magnesium chloride (MgCl2), 4.4 mM saccharolactone, 0.022 mg/mL alamethicin, 3.5 mM uridine 5′-diphospho-glucuronic acid (UDPGA), 10 μM substrates and different concentrations of microsomes in 50 mM potassium phosphate buffer (pH 7.4); for sulfation, 10 mM dithiothreitol (DTT), 5 mM MgCl2, 100 μM 3′-phosphoadenosine-5′-phosphosulfate (PAPS),10 μM substrate and different concentrations of S9 fractions in 50 mM potassium phosphate buffer (pH 7.4).
(§3) In vitro tools were employed to help predict the in vivo metabolism rates of the COX-2 inhibitors that are phenolics. The microsomes and S9 fractions prepared from colon or liver were used to determine the in vivo glucuronidation and sulfation rates of the phenolic compounds, respectively. By employing microsomes and S9 fractions prepared from both rats and humans, it could be determined if the results obtained in the rat model could be reasonably extrapolated to humans. In these experiments, raloxifene and genistein, two phenolic compounds which undergo extensive first-pass metabolism, were selected as controls.

rat colon microsomes = test: Glucuronidation by rat colon microsomes; format: in vitro ADME
Method: as §2, with “5B” for “5A”, “glucuronidation” for “metabolism”, “in liver and colon microsomes of rats.” for “via glucuronidation pathway.”, “6a1-6a4” for “all the new locally bioavailable COX-2 inhibitors”, “and colon microsomes were measured.” for “microsomes.”, “(PAPS), 10” for “(PAPS),10”
as §3

recombinant human COX-1 = recombinant human COX-1 (Homo sapiens, UniProt P23219); test: In vitro enzyme assay, recombinant human COX-1; format: biochemical; settings: read-out: IC50 against recombinant human COX-1
Chain of recombinant human COX-1 (P23219 24-599): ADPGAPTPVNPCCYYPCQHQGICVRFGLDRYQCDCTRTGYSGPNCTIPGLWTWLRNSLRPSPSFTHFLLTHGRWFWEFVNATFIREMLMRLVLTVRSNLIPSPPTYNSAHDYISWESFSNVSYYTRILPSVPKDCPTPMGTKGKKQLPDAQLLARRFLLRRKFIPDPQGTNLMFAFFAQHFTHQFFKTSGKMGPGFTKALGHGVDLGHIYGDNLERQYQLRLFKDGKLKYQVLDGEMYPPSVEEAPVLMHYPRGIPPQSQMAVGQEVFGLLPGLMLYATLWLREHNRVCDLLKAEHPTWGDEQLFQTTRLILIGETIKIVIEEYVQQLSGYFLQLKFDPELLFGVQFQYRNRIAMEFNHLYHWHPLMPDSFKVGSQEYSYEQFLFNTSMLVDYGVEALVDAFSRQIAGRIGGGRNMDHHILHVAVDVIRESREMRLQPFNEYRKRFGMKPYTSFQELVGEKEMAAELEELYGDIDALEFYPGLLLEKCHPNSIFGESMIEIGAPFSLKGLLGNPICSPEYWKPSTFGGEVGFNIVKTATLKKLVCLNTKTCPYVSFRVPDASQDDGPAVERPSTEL

[3] = test system: human intestine microsomes; test: Glucuronidation by human intestine microsomes; format: in vitro ADME
Method: as §2, with “FIG. 5D” for “FIG. 5A”, “of phenolics.” for “of phenolics via glucuronidation pathway.”, “of 6a1-6a4” for “of all the new locally bioavailable COX-2 inhibitors”, “by human” for “by rat”, “liver and intestinal” for “liver”, “Table 4.” for “Table 3.”
as §3

human liver microsomes = test: Glucuronidation by human liver microsomes; format: in vitro ADME
Method: as §2, with “FIG. 5D” for “FIG. 5A”, “of phenolics.” for “of phenolics via glucuronidation pathway.”, “of 6a1-6a4” for “of all the new locally bioavailable COX-2 inhibitors”, “by human” for “by rat”, “liver and intestinal” for “liver”, “Table 4.” for “Table 3.”
as §3

Structure (SMILES) | IC50 (human COX-2 [1]) [µM] | IC50 (mouse COX-2) [µM] | IC50 (human COX-2 [2]) [nM] | Glucuronidation by rat liver microsomes (FIG. 5A) (rat liver microsomes) | Glucuronidation rates by liver microsomes (Mean) (rat liver microsomes) [pmol/mg/min] | Glucuronidation rates by colon microsomes (Mean) (rat colon microsomes) [pmol/mg/min] | IC50 (recombinant human COX-1) [µM] | Glucuronidation rates by intestine microsomes (Mean) [3] [pmol/mg/min] | Glucuronidation rates by liver microsomes (Mean) (human liver microsomes) [pmol/mg/min]
CCOC(=O)c1cc(-c2ccc(C)cc2)n(-c2ccc(S(N)(=O)=O)cc2)n1 [Compound 3a] | 0.149 ± 0.026 | 0.071 ± 0.021 | – | – | – | – | – | – | –
Cc1ccc(-c2cc(COc3ccc4c(=O)c(O)c(-c5ccccc5)oc4c3)nn2-c2ccc(S(N)(=O)=O)cc2)cc1 [Compound 6a4] | 0.162 ± 0.065 | 0.303 ± 0.055 | 2590 | rapidly glucuronidated | 4763 | 571 | 16 | 2134 | 291
NS(=O)(=O)c1ccc(-n2nc(COc3ccc(O)cc3)cc2-c2ccccc2)cc1 [Compound 6b3] | – | 0.033 ± 0.004 | 2250 | – | 656 | – | 0.028 | – | –

Now from value to compound:

IC50 (human COX-2 [1]) [µM] | IC50 (mouse COX-2) [µM] | IC50 (human COX-2 [2]) [nM] | Glucuronidation by rat liver microsomes (FIG. 5A) (rat liver microsomes) | Glucuronidation rates by liver microsomes (Mean) (rat liver microsomes) [pmol/mg/min] | Glucuronidation rates by colon microsomes (Mean) (rat colon microsomes) [pmol/mg/min] | IC50 (recombinant human COX-1) [µM] | Glucuronidation rates by intestine microsomes (Mean) [3] [pmol/mg/min] | Glucuronidation rates by liver microsomes (Mean) (human liver microsomes) [pmol/mg/min] | Structure (SMILES)
– | – | 54500 | – | 7453 | – | 197 | – | – | NS(=O)(=O)c1ccc(-n2nc(COc3ccccc3O)cc2-c2ccccc2)cc1 [Compound 6b1]
– | 4.31 ± 0.629 | 207 | – | 4132 | – | 145 | – | – | NS(=O)(=O)c1ccc(-n2nc(COc3cccc(O)c3)cc2-c2ccccc2)cc1 [Compound 6b2]
